Experimental data: patent US20020155443A1, “Metal binding DNA interactive compounds” (priority 2000, published 2002)

Legend:
Assay type in all cases: cell-based
ACHN = assay: DTP Human Tumor Cell Line Screen, sulforhodamine B assay; conditions: Renal Cancer, 48 h
Method: (§1) The growth inhibitory activity of propargylic sulfone 3.2 against a wide range of human cancer cell lines was determined calorimetrically with sulforhodamine B assay conducted by the National Cancer Institute of the National Institutes of Health.
(§2) The in vitro cytotoxicity of compounds 2.47, 2.48 and 3.2 were investigated using the DTP Human Tumor Cell Line Screen. The concept, rationale and history of development of the DTP Human Tumor Cell Line Screen were described by Boyd (1993;1997)^8.4, 8.6 and Boyd and Paull (1995)^8.5. Further technical details of the NCI screening procedures were described (Monks, et. al.)^8.2 as were the origins and processing of the cell lines (Alley, et. al., Shoemaker, et. al., Stinson, et. al.). Briefly, cell suspensions that were diluted according to the particular cell type and the expected target cell density (5000-40,000 cells per well based on cell growth characteristics) were added by pipet (100 μL) into 96-well microtiter plates. Inoculates were allowed a preincubation period of 24 h at 37° C. for stabilization. Dilutions at twice the intended test concentration were added at time zero in 100-μL aliquots to the microtiter plate wells. Usually, test compounds were evaluated at five 10-fold dilutions. In routine testing, the highest well concentration is 10E-4 M, but for the standard agents the highest well concentration used depended on the agent. Incubations lasted for 48 h in 5% CO2 atmosphere and 100% humidity. The cells were assayed by using the sulforhodamine B assay (Rubinstein, et. al., Skehan, et. al.). A plate reader was used to read the optical densities, and a microcomputer processed the optical densities into the special concentration parameters.

OVCAR-3 = assay: as above; conditions: Ovarian Cancer, 48 h
Method: as §1, §2

BT-549 = assay: as above; conditions: Breast Cancer, 48 h
Method: as §1, §2

A-549/ATCC = assay: as above; conditions: 48 h
Method: as §1, §2

UACC-257 = assay: as above; conditions: Melanoma, 48 h
Method: as §1, §2

HCC-2998 = assay: as above; conditions: Colon Cancer, 48 h
Method: as §1, §2

NCI-H226 = assay: as above; conditions: Non-Small Cell Lung Cancer, 48 h
Method: as §1, §2

KM12 = assay: as above; conditions: Colon Cancer, 48 h
Method: as §1, §2

OVCAR-5 = assay: as above; conditions: Ovarian Cancer, 48 h
Method: as §1, §2

T-47D = assay: as above; conditions: Breast Cancer, 48 h
Method: as §1, §2

MOLT-4 = assay: as above; conditions: Leukemia, 48 h
Method: as §1, §2

SW-620 = assay: as above; conditions: Colon Cancer, 48 h
Method: as §1, §2

786-0 = assay: as above; conditions: Renal Cancer, 48 h
Method: as §1, §2

SK-MEL-2 = assay: as above; conditions: Melanoma, 48 h
Method: as §1, §2

LOX IMVI = assay: as above; conditions: Melanoma, 48 h
Method: as §1, §2

SK-OV-3 = assay: as above; conditions: Ovarian Cancer, 48 h
Method: as §1, §2

HCT-116 = assay: as above; conditions: Colon Cancer, 48 h
Method: as §1, §2

[1] = tested on: B16 murine melanoma cells; assay: Growth inhibition of B16 murine melanoma cells, MTT assay; conditions: B16 melanoma cells; read-out: IC50, growth inhibition
Method: The growth inhibitory activities of bis(propargylic) sulfone crown ethers 2.47 and 2.48 against B16 murine melanoma cells were determined calorimetrically with an MTT assay conducted by the Institute for Drug Development at the Cancer Research and Therapy Center in San Antonio, Tex.

M14 = assay: DTP Human Tumor Cell Line Screen, sulforhodamine B assay; conditions: Melanoma, 48 h
Method: as §1, §2

RPMI-8226 = assay: as above; conditions: Leukemia, 48 h
Method: as §1, §2

For O=S1(=O)CC#CCOCCOCCOCCOCCOCCOCC#CC1 [Compound 2.47], the IC50 (ACHN) was 13.5 µM, the IC50 (OVCAR-3) was 15.8 µM and the IC50 (BT-549) was 14.1 µM. For the same molecule, the IC50 (A-549/ATCC; Non-Small Cell Lung Cancer) was 20.2 µM, the IC50 (UACC-257) was 11.6 µM and the IC50 (HCC-2998) was 19.1 µM. The IC50 (NCI-H226) was 39.7 µM, the IC50 (KM12) was 16.2 µM and the IC50 (OVCAR-5) was 17.1 µM. For the same molecule, the IC50 (T-47D) was 20.6 µM, the IC50 (MOLT-4) was 3.7 µM and the IC50 (SW-620) was 10.4 µM. The IC50 (786-0) was 11 µM, the IC50 (SK-MEL-2) was 16.1 µM and the IC50 (LOX IMVI) was 11.1 µM. For the same molecule, the IC50 (SK-OV-3) was 36 µM, the IC50 (HCT-116) was 8.1 µM and the IC50 [1] was 54.2 µM.
O=S1(=O)CC#CCOCCOCCOCCOCCOCCOCCOCC#CC1 [Compound 2.48] showed an IC50 (ACHN) of 22.4 µM, an IC50 (OVCAR-3) of 19.7 µM and an IC50 (BT-549) of 20 µM. The IC50 (A-549/ATCC; Non-Small Cell Lung Cancer) was 61.7 µM, the IC50 (UACC-257) was 21.2 µM and the IC50 (HCC-2998) was 17.7 µM. It also gave an IC50 (NCI-H226) of 86.9 µM, an IC50 (KM12) of 20.7 µM and an IC50 (M14) of 16.9 µM. It also gave an IC50 (OVCAR-5) of 18 µM, an IC50 (T-47D) of 24.5 µM and an IC50 (MOLT-4) of 19.9 µM. For the same molecule, the IC50 (SW-620) was 14.3 µM, the IC50 (RPMI-8226) was 17.4 µM and the IC50 (786-0) was 18.4 µM. The IC50 (SK-MEL-2) was 17.3 µM, the IC50 (LOX IMVI) was 19.9 µM and the IC50 (SK-OV-3) was 32.2 µM. For the same molecule, the IC50 (HCT-116) was 15.3 µM and the IC50 [1] was 44.7 µM.
With O=C(OCC1COCCOCCOCCOCCO1)c1ccc(CS(=O)(=O)CC#CCO)cc1 (centres unmarked) [Compound 3.2] the IC50 (ACHN; Homo sapiens) was > 100 µM, the IC50 (OVCAR-3; Homo sapiens) was > 100 µM and the IC50 (BT-549; Homo sapiens) was > 100 µM. The IC50 (A-549/ATCC; Homo sapiens, A549, Non-Small Cell Lung Cancer) was > 100 µM, the IC50 (UACC-257; Homo sapiens) was > 100 µM and the IC50 (HCC-2998; Homo sapiens) was > 100 µM. For the same molecule, the IC50 (NCI-H226; Homo sapiens) was > 100 µM, the IC50 (KM12; Homo sapiens) was > 100 µM and the IC50 (M14; Homo sapiens) was > 100 µM. For the same molecule, the IC50 (OVCAR-5; Homo sapiens) was > 100 µM, the IC50 (MOLT-4; Homo sapiens) was > 100 µM and the IC50 (SW-620; Homo sapiens) was 67 µM. It also gave an IC50 (RPMI-8226; Homo sapiens) of 8.4 µM, an IC50 (786-0; Homo sapiens) of 35.3 µM and an IC50 (SK-MEL-2; Homo sapiens) of 98.7 µM. The IC50 (LOX IMVI; Homo sapiens) was 54.3 µM, the IC50 (SK-OV-3; Homo sapiens) was > 100 µM and the IC50 (HCT-116; Homo sapiens) was > 100 µM.
